Molecules are shown by their SMILES. “And” between values parts separate entries of the source, which are not always exact repeats. Equal values may be shown once.

In test [1] the target is T1, acetylcholinesterase (AChE) (Homo sapiens, UniProt P22303). The settings on record: for Selectivity Index (AChE/BuChE): ratio between (AChE/BuChE) IC50; for IC50 against acetylcholinesterase (AChE): human enzyme, dose response 0.01 to 100 µM.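 On all read-outs here: Kit-based enzyme assay using enzymes of human origin.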
Description: (§1) Experimental procedures were followed as instructed by the kits’ manufacturer. The enzymes used in the assays were of human origin. IC50 values of the compounds were calculated from the obtained dose response curve, and selectivity index was calculated as a ratio between (AChE/BuChE) IC50.
Test [2] addresses T1, acetylcholinesterase (AChE). The test can be described thus: biochemical. The conditions noted are these: for IC50: IC50 against acetylcholinesterase (AChE), human enzyme, dose response 0.01 to 100 µM; for inhibition at 0.01 µM / inhibition at 0.1 µM / inhibition at 1 µM / inhibition at 10 µM / inhibition at 100 µM: read-out: % inhibition AChE.
Description: as §1
The target in test [3] is butyrylcholinesterase (BuChE) (Homo sapiens, UniProt P06276). The test can be described thus: biochemical. The conditions noted are these: for IC50: IC50 against butyrylcholinesterase (BuChE), human enzyme, dose response 0.01 to 100 µM; for inhibition at 0.01 µM / inhibition at 0.1 µM / inhibition at 1 µM / inhibition at 10 µM / inhibition at 100 µM: read-out: % inhibition BuChE.
Description: as §1

The next test relates to AChE. Also on record: method as in PMID 23466605, PMID 10052979, PMID 29775949, PMID 31675671. The settings on record: Figure 1; ref [37],[30],[34],[38],[36]; read-out: AChE inhibition IC50; cited from earlier work.

Sequence of butyrylcholinesterase (BuChE) (P06276 29-602): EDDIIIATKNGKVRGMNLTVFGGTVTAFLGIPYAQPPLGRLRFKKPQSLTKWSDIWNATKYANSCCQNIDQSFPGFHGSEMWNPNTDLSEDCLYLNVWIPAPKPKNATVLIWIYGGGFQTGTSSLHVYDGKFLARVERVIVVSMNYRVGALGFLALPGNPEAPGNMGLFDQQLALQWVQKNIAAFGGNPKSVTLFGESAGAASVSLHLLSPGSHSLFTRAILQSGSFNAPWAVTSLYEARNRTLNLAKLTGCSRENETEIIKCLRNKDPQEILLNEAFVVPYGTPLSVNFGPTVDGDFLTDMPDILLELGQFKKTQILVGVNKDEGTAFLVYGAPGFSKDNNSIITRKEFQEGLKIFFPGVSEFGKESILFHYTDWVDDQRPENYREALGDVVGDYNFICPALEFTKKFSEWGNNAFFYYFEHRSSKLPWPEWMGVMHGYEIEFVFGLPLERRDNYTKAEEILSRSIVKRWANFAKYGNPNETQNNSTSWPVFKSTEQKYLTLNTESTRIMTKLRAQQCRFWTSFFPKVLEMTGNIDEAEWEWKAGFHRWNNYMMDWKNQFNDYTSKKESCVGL
T1 sequence (P22303 32-614): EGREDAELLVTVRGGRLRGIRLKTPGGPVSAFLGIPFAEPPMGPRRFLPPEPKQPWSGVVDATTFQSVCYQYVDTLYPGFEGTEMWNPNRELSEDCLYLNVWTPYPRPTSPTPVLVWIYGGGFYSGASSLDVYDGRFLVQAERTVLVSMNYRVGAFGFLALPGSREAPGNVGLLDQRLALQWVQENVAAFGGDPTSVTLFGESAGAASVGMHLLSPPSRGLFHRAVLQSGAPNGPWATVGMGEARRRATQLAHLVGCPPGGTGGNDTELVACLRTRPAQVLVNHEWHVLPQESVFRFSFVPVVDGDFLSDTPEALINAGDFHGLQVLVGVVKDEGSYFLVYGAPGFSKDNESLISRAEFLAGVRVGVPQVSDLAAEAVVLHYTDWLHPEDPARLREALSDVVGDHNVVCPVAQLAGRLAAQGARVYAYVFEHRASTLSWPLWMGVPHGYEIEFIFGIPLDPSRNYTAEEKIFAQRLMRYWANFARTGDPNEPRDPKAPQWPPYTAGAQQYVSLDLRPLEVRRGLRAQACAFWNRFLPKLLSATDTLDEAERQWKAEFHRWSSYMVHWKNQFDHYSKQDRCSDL

In general, IC50 refers to the concentration at which inhibition is half-maximal. By inhibition is commonly meant the drop in the measured response relative to a control, in per cent. In the case of `C#CCSc1ccc(-c2ccccn2)nn1` [Compound 1, 3-(Prop-2-yn-1-ylthio)-6-(pyridin-2-yl)pyridazine], the “Selectivity Index (AChE/BuChE)” value in test [1] was 2.64. Besides, in test [2], 11.5 ± 0.48 µM corresponded to half-maximal inhibition (IC50), the inhibition at 0.01 µM is 6.1%, the inhibition at 0.1 µM came out at 23% and the inhibition at 1 µM came to 51%. In test [2], the inhibition at 10 µM was 74% and the inhibition at 100 µM amounted to 89%. Further, in test [3], the IC50 was found to be 4.37 ± 0.14 µM, the inhibition at 0.01 µM stood at 8.7%, the inhibition at 0.1 µM amounted to 19% and the inhibition at 1 µM was 27%. In addition, in test [3], the inhibition at 10 µM turned out to be 54% and the inhibition at 100 µM was determined as 83%.

Take `CC(=O)OCC1OC(n2cc(CSc3ccc(-c4ccccn4)nn3)nn2)C(OC(C)=O)C(OC(C)=O)C1OC(C)=O` [Compound 3, (2R,3R,4S,5R,6R)-2-(Acetoxymethyl)-6-(4-(((6-(pyridin-2-yl)pyridazin-3-yl)thio)methyl)-1H-1,2,3-triazol-1-yl)tetrahydro-2H-pyran-3,4,5-triyltriacetate]: in test [1], the “IC50 against acetylcholinesterase (AChE)” value is on record as “moderate inhibition” and the “Selectivity Index (AChE/BuChE)” value is recorded as 29.32. In test [2], the IC50 was 8.71 µM and 8.7 µM; the inhibition at 0.01 µM is 7.4%; the inhibition at 0.1 µM worked out at 23%; the inhibition at 1 µM is 43%. Further, in test [2], the inhibition at 10 µM worked out at 72% and the inhibition at 100 µM amounted to 88%. For the same molecule, in test [3], the IC50 was 0.297 µM and 0.29 µM; the inhibition at 0.01 µM worked out at 25%; the inhibition at 0.1 µM was 39%; the inhibition at 1 µM is 61%. Also, in test [3], the inhibition at 10 µM stood at 79% and the inhibition at 100 µM is 93%.

For `CC(=O)OC[C@H]1O[C@@H](n2cc(CSc3ccc(-c4ccccn4)nn3)nn2)[C@H](OC(C)=O)[C@@H](OC(C)=O)[C@H]1OC(C)=O` [Compound 4, (2R,3S,4S,5R,6R)-2-(Acetoxymethyl)-6-(4-(((6-(pyridin-2-yl)pyridazin-3-yl)thio)methyl)-1H-1,2,3-triazol-1-yl)tetrahydro-2H-pyran-3,4,5-triyl triacetate], the “Selectivity Index (AChE/BuChE)” value in test [1] turned out to be 0.81. In test [2], the IC50 worked out at 11.9 ± 0.5 µM, the inhibition at 0.01 µM amounted to 11%, the inhibition at 0.1 µM is 29% and the inhibition at 1 µM worked out at 47%. In test [2], the inhibition at 10 µM is 71% and the inhibition at 100 µM worked out at 87%. Moreover, in test [3], the IC50 worked out at 14.6 ± 0.48 µM, the inhibition at 0.01 µM is 5.1%, the inhibition at 0.1 µM is 11% and the inhibition at 1 µM is 20%. In test [3], the inhibition at 10 µM was 41% and the inhibition at 100 µM worked out at 75%.

Regarding `CC(=O)OC1COC(n2cc(CSc3ccc(-c4ccccn4)nn3)nn2)C(OC(C)=O)C1OC(C)=O` (centres unmarked) [Compound 5], in test [1], the “Selectivity Index (AChE/BuChE)” value is listed as 1.41. In test [2], the IC50 was 0.266 µM and 0.26 µM; the inhibition at 0.01 µM was 42%; the inhibition at 0.1 µM worked out at 61%; the inhibition at 1 µM stood at 71%. Moreover, in test [2], the inhibition at 10 µM is 83% and the inhibition at 100 µM worked out at 94%. Further, in test [3], the IC50 was 0.189 µM and 0.18 µM; the inhibition at 0.01 µM came out at 25%; the inhibition at 0.1 µM turned out to be 48%; the inhibition at 1 µM turned out to be 67%. For the same molecule, in test [3], the inhibition at 10 µM stood at 78% and the inhibition at 100 µM turned out to be 91%.

Consider `CC(=O)OC[C@H]1O[C@@H](n2cc(CSc3ccc(-c4ccccn4)nn3)nn2)[C@H](OC(C)=O)[C@@H]1OC(C)=O` [Compound 6, (2R,3R,4R,5R)-2-(Acetoxymethyl)-5-(4-(((6-(pyridin-2-yl)pyridazin-3-yl)thio)methyl)-1H-1,2,3-triazol-1-yl)tetrahydrofuran-3,4-diyl diacetate], for which, in test [1], the “IC50 against acetylcholinesterase (AChE)” value is listed as “moderate inhibition” and the “Selectivity Index (AChE/BuChE)” value came to 0.29. In test [2], the IC50 was found to be 9.15 µM, the inhibition at 0.01 µM amounted to 9%, the inhibition at 0.1 µM worked out at 29% and the inhibition at 1 µM was determined as 55%. In addition, in test [2], the inhibition at 10 µM was found to be 73% and the inhibition at 100 µM amounted to 88%. In test [3], the IC50 was 32 ± 1.05 µM, the inhibition at 0.01 µM worked out at 4%, the inhibition at 0.1 µM was 8.1% and the inhibition at 1 µM worked out at 19%. Further, in test [3], the inhibition at 10 µM was determined as 33% and the inhibition at 100 µM was 69%.

For the molecule `OC[C@H]1O[C@@H](n2cc(CSc3ccc(-c4ccccn4)nn3)nn2)[C@H](O)[C@@H](O)[C@@H]1O` [Compound 7, (2R,3S,4S,5R,6R)-2-(Hydroxymethyl)-6-(4-(((6-(pyridin-2-yl)pyridazin-3-yl)thio)methyl)-1H-1,2,3-triazol-1-yl)tetrahydro-2H-pyran-3,4,5-triol], in test [1], the “IC50 against acetylcholinesterase (AChE)” value is “moderate inhibition” and the “Selectivity Index (AChE/BuChE)” value was found to be 0.39. For the same molecule, in test [2], 3.14 ± 0.13 µM corresponded to half-maximal inhibition (IC50), the inhibition at 0.01 µM is 14%, the inhibition at 0.1 µM amounted to 38% and the inhibition at 1 µM was 62%. Moreover, in test [2], the inhibition at 10 µM was found to be 80% and the inhibition at 100 µM turned out to be 92%. In addition, in test [3], the midpoint of inhibition, the IC50, lay at 7.9 ± 0.26 µM; the inhibition at 0.01 µM is 7.8%; the inhibition at 0.1 µM worked out at 13%; the inhibition at 1 µM was 23%. For the same molecule, in test [3], the inhibition at 10 µM stood at 48% and the inhibition at 100 µM was 79%.

Consider `OC[C@H]1O[C@@H](n2cc(CSc3ccc(-c4ccccn4)nn3)nn2)[C@H](O)[C@@H]1O` [Compound 8, (2R,3S,4R,5R)-2-(Hydroxymethyl)-5-(4-(((6-(pyridin-2-yl)pyridazin-3-yl)thio)methyl)-1H-1,2,3-triazol-1-yl)tetrahydrofuran-3,4-diol], for which the “Selectivity Index (AChE/BuChE)” value in test [1] stood at 0.12. Moreover, in test [2], the IC50 amounted to 0.64 ± 0.02 µM, the inhibition at 0.01 µM was 26%, the inhibition at 0.1 µM was 43% and the inhibition at 1 µM turned out to be 62%. Further, in test [2], the inhibition at 10 µM came to 88% and the inhibition at 100 µM was determined as 93%. Besides, in test [3], the IC50 turned out to be 5.35 ± 0.17 µM, the inhibition at 0.01 µM came to 5.9%, the inhibition at 0.1 µM was 13% and the inhibition at 1 µM is 22%. Also, in test [3], the inhibition at 10 µM is 55% and the inhibition at 100 µM amounted to 82%.

Regarding `OCCOCCn1cc(CSc2ccc(-c3ccccn3)nn2)nn1` [Compound 9], the “Selectivity Index (AChE/BuChE)” value in test [1] was 1.68. In test [2], the IC50 was 0.647 µM and 0.64 µM; the inhibition at 0.01 µM was found to be 35%; the inhibition at 0.1 µM worked out at 54%; the inhibition at 1 µM was determined as 70%. In test [2], the inhibition at 10 µM is 82% and the inhibition at 100 µM was determined as 92%. Also, in test [3], the IC50 is 0.384 µM and 0.38 µM; the inhibition at 0.01 µM is 22%; the inhibition at 0.1 µM stood at 37%; the inhibition at 1 µM is 56%. In test [3], the inhibition at 10 µM stood at 80% and the inhibition at 100 µM is 93%.

Regarding `OCCn1cc(CSc2ccc(-c3ccccn3)nn2)nn1` [Compound 10, 2-(4-(((6-(Pyridin-2-yl)pyridazin-3-yl)thio)methyl)-1H-1,2,3-triazol-1-yl)ethan-1-ol], in test [1], the “Selectivity Index (AChE/BuChE)” value was determined as 0.30. In test [2], the IC50 was found to be 1.84 ± 0.07 µM, the inhibition at 0.01 µM worked out at 24%, the inhibition at 0.1 µM was 40% and the inhibition at 1 µM turned out to be 68%. Besides, in test [2], the inhibition at 10 µM was determined as 83% and the inhibition at 100 µM was 90%. Besides, in test [3], the IC50 is 6.06 ± 0.2 µM, the inhibition at 0.01 µM was 5.6%, the inhibition at 0.1 µM came out at 13% and the inhibition at 1 µM came to 31%. Besides, in test [3], the inhibition at 10 µM was found to be 51% and the inhibition at 100 µM turned out to be 78%.

Consider `NCCn1cc(CSc2ccc(-c3ccccn3)nn2)nn1` [Compound 11, 2-(4-(((6-(Pyridin-2-yl)pyridazin-3-yl)thio)methyl)-1H-1,2,3-triazol-1-yl)ethan-1-amine], for which the “Selectivity Index (AChE/BuChE)” value in test [1] amounted to 0.34. Moreover, in test [2], the half-inhibitory concentration (IC50) is 14.6 ± 0.61 µM, the inhibition at 0.01 µM was found to be 7.5%, the inhibition at 0.1 µM amounted to 26% and the inhibition at 1 µM was 53%. In test [2], the inhibition at 10 µM is 76% and the inhibition at 100 µM stood at 90%. In test [3], the IC50 came out at 42.9 ± 1.52 µM, the inhibition at 0.01 µM was -8.1%, the inhibition at 0.1 µM came to 7.5% and the inhibition at 1 µM was 12%. Besides, in test [3], the inhibition at 10 µM was 33% and the inhibition at 100 µM was 71%.

With `COc1cc2c(cc1OC)C(=O)C(CC1CCN(Cc3ccccc3)CC1)C2` (centres unmarked) [Donepezil, donepezil, reference compound], in test [3], the inhibition at 0.01 µM is 16%, the inhibition at 0.1 µM was 32%, the inhibition at 1 µM is 65% and the inhibition at 10 µM was 84%. The inhibition at 100 µM in test [3] is 94%.

`CCN(C)C(=O)Oc1cccc([C@H](C)N(C)C)c1` [Rivastigmine, rivastigmine, reference compound]: in test [3], the inhibition at 0.01 µM came out at 0.7%, the inhibition at 0.1 µM worked out at 3.2%, the inhibition at 1 µM was determined as 7% and the inhibition at 10 µM is 38%. The inhibition at 100 µM in test [3] stood at 80%.

With `Cc1ccc(-c2ccc(=O)n(CCc3n[nH]c(=S)n3-c3ccc(OC(F)(F)F)cc3)n2)cc1` [VII], the IC50 with AChE is 0.049 µM.

Turning to `CC(=O)OCC1O[C@@H](n2cc(CNc3c4c(nc5ccccc35)CCCC4)nn2)C(OC(C)=O)C(OC(C)=O)C1OC(C)=O` (some centres unmarked) [VI], the IC50 in the test on AChE was 4.89 µM.

On to `COc1ccc(-c2ccc(C(=O)NCCC3CCN(Cc4ccccc4)CC3)nn2)cc1` [V], for which the IC50 in the test on AChE is 0.11 µM.

The values are drawn from PMC11510214, “Novel Dual Acetyl- and Butyrylcholinesterase Inhibitors Based on the Pyridyl–Pyridazine Moiety for the Potential Treatment of Alzheimer’s Disease” (Pharmaceuticals, 2024).
